# Laboratory results as given in PubChem BioAssay (NCI).
#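 GI50 = concentration required for 50% inhibition of growth. The concentration for full growth arrest is given as TGI.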
# Key:
# Assay in all cases: NCI-60 cell line screen, 384-well format
# A498 renal = test system: A498 renal
# HL-60(TB) leukemia = test system: HL-60(TB) leukemia
# OVCAR-3 ovarian = test system: OVCAR-3 ovarian
# KM12 colon = test system: KM12 colon
# MOLT-4 leukemia = test system: MOLT-4 leukemia
# EKVX NSCLC = test system: EKVX NSCLC
# RXF 393 renal = test system: RXF 393 renal
# OVCAR-8 ovarian = test system: OVCAR-8 ovarian
# CCRF-CEM leukemia = test system: CCRF-CEM leukemia
# SNB-75 CNS = test system: SNB-75 CNS
# HCT-116 colon = test system: HCT-116 colon
# MDA-MB-468 breast = test system: MDA-MB-468 breast
# DU-145 prostate = test system: DU-145 prostate
# HOP-62 NSCLC = test system: HOP-62 NSCLC
# SN12C renal = test system: SN12C renal
# UO-31 renal = test system: UO-31 renal
# BT-549 breast = test system: BT-549 breast
# COLO 205 colon = test system: COLO 205 colon
# NCI/ADR-RES ovarian = test system: NCI/ADR-RES ovarian
# NCI-H460 NSCLC = test system: NCI-H460 NSCLC
# SK-MEL-28 melanoma = test system: SK-MEL-28 melanoma
# SK-OV-3 ovarian = test system: SK-OV-3 ovarian
# A549 NSCLC = test system: A549 NSCLC
# HCC-2998 colon = test system: HCC-2998 colon
# MALME-3M melanoma = test system: MALME-3M melanoma
# HS 578T breast = test system: HS 578T breast
# UACC-62 melanoma = test system: UACC-62 melanoma
# NCI-H23 lung = test system: NCI-H23 lung
# U251 glioblastoma = test system: U251 glioblastoma
# IGROV1 ovarian = test system: IGROV1 ovarian
# HT29 colon = test system: HT29 colon
# OVCAR-5 ovarian = test system: OVCAR-5 ovarian
# HOP-92 NSCLC = test system: HOP-92 NSCLC
# T-47D breast = test system: T-47D breast
# NCI-H226 lung = test system: NCI-H226 lung
# SF-268 CNS = test system: SF-268 CNS
# ACHN renal = test system: ACHN renal
# K-562 leukemia = test system: K-562 leukemia
# NCI-H522 lung = test system: NCI-H522 lung
# SK-MEL-5 melanoma = test system: SK-MEL-5 melanoma
# RPMI-8226 leukemia = test system: RPMI-8226 leukemia
# NCI-H322M lung = test system: NCI-H322M lung
# 786-0 renal = test system: 786-0 renal
# HCT-15 colon = test system: HCT-15 colon
# SW-620 colon = test system: SW-620 colon
# SF-295 CNS = test system: SF-295 CNS
# OVCAR-4 ovarian = test system: OVCAR-4 ovarian
smiles,measurement,setting,value
Nc1ncn(C2OC(CO)C(O)C2O)c(=O)n1 (stereo not drawn),GI50,A498 renal,2500 nM
same,TGI,A498 renal,11.9 µM
same,GI50,HL-60(TB) leukemia,372 nM
same,TGI,HL-60(TB) leukemia,806 nM
same,GI50,OVCAR-3 ovarian,1460 nM
same,TGI,OVCAR-3 ovarian,5.06 µM
same,GI50,KM12 colon,2540 nM
same,TGI,KM12 colon,11.8 µM
same,GI50,MOLT-4 leukemia,1320 nM
same,TGI,MOLT-4 leukemia,2720 nM
same,GI50,EKVX NSCLC,19.5 µM
same,TGI,EKVX NSCLC,> 75.8 µM
same,GI50,RXF 393 renal,1250 nM
same,TGI,RXF 393 renal,10.9 µM
same,GI50,OVCAR-8 ovarian,1990 nM
same,TGI,OVCAR-8 ovarian,17.8 µM
same,GI50,CCRF-CEM leukemia,993 nM
same,TGI,CCRF-CEM leukemia,3.67 µM
same,GI50,SNB-75 CNS,2230 nM
same,GI50,HCT-116 colon,627 nM
same,TGI,HCT-116 colon,2570 nM
same,GI50,MDA-MB-468 breast,529 nM
same,TGI,MDA-MB-468 breast,1410 nM
same,GI50,DU-145 prostate,1100 nM
same,TGI,DU-145 prostate,6.53 µM
same,GI50,HOP-62 NSCLC,899 nM
same,TGI,HOP-62 NSCLC,3.51 µM
same,GI50,SN12C renal,1580 nM
same,TGI,SN12C renal,35.7 µM
same,GI50,UO-31 renal,2500 nM
same,TGI,UO-31 renal,15.1 µM
same,GI50,BT-549 breast,694 nM
same,TGI,BT-549 breast,3.31 µM
same,GI50,COLO 205 colon,1410 nM
same,TGI,COLO 205 colon,10.9 µM
same,GI50,NCI/ADR-RES ovarian,4.25 µM
same,TGI,NCI/ADR-RES ovarian,> 35.6 µM
same,GI50,NCI-H460 NSCLC,239 nM
same,TGI,NCI-H460 NSCLC,1270 nM
same,GI50,SK-MEL-28 melanoma,3.33 µM
same,TGI,SK-MEL-28 melanoma,18 µM
same,GI50,SK-OV-3 ovarian,3.18 µM
same,TGI,SK-OV-3 ovarian,> 27.7 µM
same,GI50,A549 NSCLC,3.24 µM
same,TGI,A549 NSCLC,> 38 µM
same,GI50,HCC-2998 colon,1580 nM
same,TGI,HCC-2998 colon,5.01 µM
same,GI50,MALME-3M melanoma,3.3 µM
same,TGI,MALME-3M melanoma,16.7 µM
same,GI50,HS 578T breast,1380 nM
same,TGI,HS 578T breast,7.12 µM
same,GI50,UACC-62 melanoma,561 nM
same,TGI,UACC-62 melanoma,2780 nM
same,GI50,NCI-H23 lung,7.25 µM
same,TGI,NCI-H23 lung,28.4 µM
same,GI50,U251 glioblastoma,1420 nM
same,TGI,U251 glioblastoma,> 33.2 µM
same,GI50,IGROV1 ovarian,2610 nM
same,TGI,IGROV1 ovarian,10.3 µM
same,GI50,HT29 colon,3.52 µM
same,TGI,HT29 colon,30.1 µM
same,GI50,OVCAR-5 ovarian,3.22 µM
same,TGI,OVCAR-5 ovarian,23 µM
same,GI50,HOP-92 NSCLC,2360 nM
same,TGI,HOP-92 NSCLC,30 µM
same,GI50,T-47D breast,4.67 µM
same,TGI,T-47D breast,> 37.6 µM
same,GI50,NCI-H226 lung,4.46 µM
same,TGI,NCI-H226 lung,27.8 µM
same,GI50,SF-268 CNS,4.36 µM
same,TGI,SF-268 CNS,> 31.9 µM
same,GI50,ACHN renal,1300 nM
same,TGI,ACHN renal,17 µM
same,GI50,K-562 leukemia,657 nM
same,TGI,K-562 leukemia,5.41 µM
same,GI50,NCI-H522 lung,1580 nM
same,TGI,NCI-H522 lung,6.41 µM
same,GI50,SK-MEL-5 melanoma,628 nM
same,TGI,SK-MEL-5 melanoma,2120 nM
same,GI50,RPMI-8226 leukemia,138 nM
same,TGI,RPMI-8226 leukemia,590 nM
same,GI50,NCI-H322M lung,1520 nM
same,TGI,NCI-H322M lung,25.7 µM
same,GI50,786-0 renal,1870 nM
same,TGI,786-0 renal,> 42.3 µM
same,GI50,HCT-15 colon,2110 nM
same,TGI,HCT-15 colon,8.05 µM
same,GI50,SW-620 colon,2250 nM
same,TGI,SW-620 colon,> 34.7 µM
same,GI50,SF-295 CNS,2780 nM
same,TGI,SF-295 CNS,16.5 µM
same,GI50,OVCAR-4 ovarian,3.33 µM
same,TGI,OVCAR-4 ovarian,23.8 µM
